As a reminder, the IC50 is the concentration that inhibits the measured activity by half.

The experiment has as its target T1, Alkaline phosphatase, tissue-nonspecific isozyme (Homo sapiens, UniProt P05186).
T1 sequence (P05186 whole entry): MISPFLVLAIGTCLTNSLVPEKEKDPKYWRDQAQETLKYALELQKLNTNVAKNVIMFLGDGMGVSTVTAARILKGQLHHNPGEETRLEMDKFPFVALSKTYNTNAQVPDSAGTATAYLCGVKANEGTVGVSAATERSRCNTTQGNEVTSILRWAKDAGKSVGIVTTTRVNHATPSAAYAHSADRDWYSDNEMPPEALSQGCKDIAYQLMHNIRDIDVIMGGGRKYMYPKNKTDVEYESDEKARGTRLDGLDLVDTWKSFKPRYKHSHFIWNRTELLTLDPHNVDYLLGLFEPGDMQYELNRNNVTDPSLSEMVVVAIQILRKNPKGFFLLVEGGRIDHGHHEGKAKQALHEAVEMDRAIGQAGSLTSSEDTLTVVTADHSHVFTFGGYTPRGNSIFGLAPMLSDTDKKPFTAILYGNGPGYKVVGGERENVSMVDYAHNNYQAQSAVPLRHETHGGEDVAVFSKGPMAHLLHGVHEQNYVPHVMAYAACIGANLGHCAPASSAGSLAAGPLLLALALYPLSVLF
In words: TNAP enzyme inhibition by screening hits, dose response, selectivity assay for mouse IAP inhibitor project, biochemical, human TNAP, uHTS hits (AID 488906).
`Cc1ccc(Cl)c2c1NC(=O)/C2=C1/NC(=S)NC1=O`: half-maximal inhibition (IC50) required 0.211 µM.
The result for `Nc1nnc(CC(=O)N/N=C/C2C=C([N+](=O)[O-])C=C(Br)C2=O)s1` (stereo not given) [2-(5-azanyl-1,3,4-thiadiazol-2-yl)-N'-[(E)-(5-bromanyl-3-nitro-6-oxidanylidene-cyclohexa-2,4-dien-1-ylidene)methyl]ethanehydrazide] reads 20.6 µM.
As for `NS(=O)(=O)c1cc(C(=O)NNC2=c3ccccc3=NC2=O)ccc1Cl` [2-chloro-5-[[(2-oxoindol-3-yl)amino]carbamoyl]benzenesulfonamide], the IC50 is > 100 µM.
The value for `COc1cc(C=Nn2c(O)csc2=S)ccc1O` [3-[[(E)-(3-methoxy-4-oxidanylidene-cyclohexa-2,5-dien-1-ylidene)methyl]amino]-2-sulfanylidene-1,3-thiazolidin-4-one] was > 100 µM; that for `Oc1ccc(C=Nn2c(O)csc2=S)c(O)c1O` [3-[[(E)-[2,3-bis(oxidanyl)-4-oxidanylidene-cyclohexa-2,5-dien-1-ylidene]methyl]amino]-2-sulfanylidene-1,3-thiazolidin-4-one] was 58.5 µM; that for `CC1NON=C1C(=O)NN=CC1=CC(=O)C(=O)C=C1` (stereo not given) [4-Methyl-furazan-3-carboxylic acid (3,4-dihydroxy-benzylidene)-hydrazide] was 16.8 µM.
The result for `Oc1ccc(CN=Nc2cc(N3CCCC3)nc(N3CCCC3)n2)cc1O` [(4Z)-4-[[2-(2,6-dipyrrolidin-1-ylpyrimidin-4-yl)hydrazinyl]methylidene]-2-hydroxycyclohexa-2,5-dien-1-one] reads > 100 µM; that for `Cc1ccc(/C=C2\SC(=S)N(/N=C/C3C=C([N+](=O)[O-])C=CC3=O)C2=O)o1` (stereo not given) [(5Z)-5-[(5-methylfuran-2-yl)methylidene]-3-[[(E)-(3-nitro-6-oxocyclohexa-2,4-dien-1-ylidene)methyl]amino]-2-sulfanylidene-1,3-thiazolidin-4-one], > 100 µM; that for `C#CCOCCOCCOCCNc1nc(N2CCN(C(=O)CCCCCCCCCCNC(=O)[C@H]([C@@H](C)CC)n3cc(CCCCN=C(N)N)nn3)CC2)nc(N2CCN(C(=O)CCCCCCCCCCNC(=O)[C@@H]([C@H](C)O)n3cc(C)nn3)CC2)n1` [GT-RI], 1.04 µM.
The result for `C#CCOCCOCCOCCNc1nc(N2CCN(C(=O)CCCCCCCCCCNC(=O)Cn3cc(CCCCCN)nn3)CC2)nc(N2CCN(C(=O)CCCCCCCCCCNC(=O)Cn3cc(C[C@@H](C)O)nn3)CC2)n1` [KG-TG] reads > 100 µM; that for `O=C1C=CC(C=NNC(=S)Nc2ccccc2[N+](=O)[O-])C=C1O` (stereo not given) [MLS000417596], 1.53 µM; that for `C#CCOCCOCCOCCNc1nc(N2CCN(C(=O)CCCCCCCCCCNC(=O)[C@@H](CCSC)n3cc(CCO)nn3)CC2)nc(N2CCN(C(=O)CCCCCCCCCCNC(=O)[C@H]([C@@H](C)CC)n3cc(CCCCCN)nn3)CC2)n1` [MLS002153719], > 100 µM.
Regarding `O=C(Nn1c(O)csc1=S)C(=O)Nn1c(O)csc1=S` [SMR000349781], the IC50 was > 100 µM.
The compound `O=C1C=CC(/C=C/c2nc(O)c([N+](=O)[O-])c(=O)[nH]2)C=C1O` (stereo not given) [SMR000524347] had a 50% inhibitory concentration (IC50) of 1.12 µM.
The result for `COc1cc(C=CC(=O)CC(=O)C=Cc2ccc(O)cc2)ccc1O` [demethoxycurcumin] reads > 100 µM.

Source of the values: BindingDB's records for doi:10.7270/Q2H130G1 (Burnham Center For Chemical Genomics, 2010).
